Assay type in all cases: physicochemical
The nature of one series: water solubility. The following applies: over relevant temperature ranges; compared with modification A. The source says: (§1) The resulting change of particle sizes could lead to a change of the stability of the formulated suspension.
Series [1] is described as follows: thermodynamic stability (DSC, solubility tests and other experiments). The conditions noted are these: compared with modification A. On the procedure: as §1
Characteristic for modification C is also the thermogram in differential scanning calorimetry (“DSC”) (see FIG. 3). It has an endothermic peak typically in the range from 130° C. to 142° C., but this will depend on purity. For example, crystal modification C in pure form has typically a peak temperature of 141° C. and an endothermic signal typically around 83 J/g. This thermogram is characteristically different from the thermograms of modifications A and B. Modification A has an endothermic peak at about 112° C. and an endothermic signal of 76; modification B has a peak at about 128° C. and a signal of 90 J/g (see PCT/EP2006/00898, FIGS. 5-6). All measurements were carried out on a Metier Toledo 820 DSC in a closed, but not sealed, pan with a heating rate of 10 K/minute. The typical sample quantity is about 5 mg.

Series [2] can be described thus: storage stability in aqueous suspensions and in solid form under humid conditions. The following applies: aqueous suspensions (such as SC-formulations) and storage in solid form under humid conditions; compared with amorphous material or modification I.

As for `CC(C)C1C2CCC1c1c(NC(=O)c3cn(C)nc3C(F)F)cccc12` (mixture of isomers) [modification C, racemic syn-3-difluoromethyl-1-methyl-1H-pyrazole-4-carboxylic acid (9-isopropyl-1,2,3,4-tetrahydro-1,4-methano-naphthalen-5-yl)-amide], the water solubility entry in the series “water solubility” is listed as “lower than the water solubility of modification A”. For the same molecule, in series [1], the thermodynamic stability entry is recorded as “substantially better thermodynamic stability than modification A”.

Take `CC(C)C1C2CCC1c1c(NC(=O)c3cn(C)nc3C(F)F)cccc12` (mixture of isomers) [monohydrate in form A, racemic anti-3-difluoromethyl-1-methyl-1H-pyrazole-4-carboxylic acid (9-isopropyl-1,2,3,4-tetrahydro-1,4-methano-naphthalen-5-yl)-amide]: the storage stability entry in series [2] is listed as “much more stable under those circumstances compared with amorphous material or with the modification I”.

For the origin of these results see patent US8580835B2, “Solid forms of a microbiocide” (Syngenta Crop Protection, LLC, priority 2007, dated 2013).
